# Test results from ChEMBL document CHEMBL5584300, “Bioinformatic Approaches Identify Hybrid Antibiotics against Tuberculosis via d-Amino Acid-Activating Adenylation Domains from Cordyceps militaris” (J Nat Prod, 2024).
# Calls of active or inactive are those of the source. No cut-off for these calls is given here.
# Assays:
# [1] = test system: Mycolicibacterium smegmatis; test: Antitubercular activity against Mycobacterium smegmatis mc2 155 assessed as reduction in microbial growth incubated for […] by CLSI based broth microdilution method; format: functional
# [2] = test system: Mycobacterium tuberculosis; test: Antitubercular activity against Mycobacterium tuberculosis H37Rv ATCC 27294 assessed as reduction in microbial growth incubated for 6 days under anaerobic condition by microplate Alamar Blue assay; format: functional; conditions: H37Rv ATCC 27294, 144 h, time 6 day
# [3] = test system: Mycobacterium tuberculosis; test: Antitubercular activity against Mycobacterium tuberculosis H37Rv ATCC 27294 assessed as reduction in microbial growth incubated for 6 days under aerobic condition by microplate Alamar Blue assay; format: functional; conditions: H37Rv ATCC 27294, 144 h, time 6 day
# [4] = Cytotoxicity against human HGC-27 cells assessed as reduction in cell viability incubated for 48 hrs by sulforhodamine B assay; format: toxicity, cell-based
# [5] = Cytotoxicity against human DLD-1 cells assessed as reduction in cell viability incubated for 48 hrs by sulforhodamine B assay; format: toxicity, cell-based
# [6] = Cytotoxicity against human HepG2 cells assessed as reduction in cell viability incubated for 48 hrs by sulforhodamine B assay; format: toxicity, cell-based
# [7] = test system: Mycobacterium tuberculosis; test: Antitubercular activity against Mycobacterium tuberculosis H37Rv ATCC 27294 infected in BALB/c mouse assessed as reduction in bacterial count in lung at 10 mg/kg measured after 4 weeks; format: functional, organism-based
# [8] = test system: Mycobacterium tuberculosis; test: Antitubercular activity against Mycobacterium tuberculosis H37Rv ATCC 27294 assessed as reduction in microbial growth incubated for 6 days by microplate Alamar Blue assay; format: functional; conditions: H37Rv ATCC 27294, 144 h, time 6 day
# [9] = test system: Mycobacterium tuberculosis; test: Antitubercular activity against Mycobacterium tuberculosis H37Rv ATCC 27294 infected in BALB/c mouse chronic model assessed as log reduction in lung at 10 mg/kg drug administered after 28 days post infection and measured after 4 weeks; format: functional
# [10] = test system: Mycobacterium tuberculosis; test: Antitubercular activity against Mycobacterium tuberculosis H37Rv ATCC 27294 infected in BALB/c mouse assessed as reduction in bacterial count measured after 4 weeks; format: functional, organism-based; conditions: dose 160-640 mg/kg
# Staphylococcus aureus [11] = test: Antibacterial activity against Staphylococcus aureus ATCC 25923 assessed as reduction in microbial growth incubated for 20 hrs by CLSI based broth microdilution method; format: functional
# [12] = test system: Mycobacterium tuberculosis; test: Antitubercular activity against Mycobacterium tuberculosis H37Rv ATCC 27294 infected in BALB/c mouse chronic model assessed as log reduction in lung at 320 mg/kg drug administered twice daily after 28 days post infection and measured after 4 weeks; format: functional
# Staphylococcus aureus [13] = test: Antibacterial activity against methicillin-resistant Staphylococcus aureus ATCC 6538 assessed as reduction in microbial growth incubated for 20 hrs by CLSI based broth microdilution method; format: functional
# [14] = test system: Mycobacterium tuberculosis; test: Bactericidal activity against Mycobacterium tuberculosis H37Rv ATCC 27294 assessed as reduction in bacterial count at 16 time MIC by time kill assay; format: functional, organism-based; conditions: time 2-10 day, TDE = time-dependent effect
# [15] = test system: Mycobacterium tuberculosis; test: Antitubercular activity against Mycobacterium tuberculosis H37Rv ATCC 27294 infected in BALB/c mouse assessed as reduction in bacterial count at 10 to 40 mg/kg measured after 4 weeks; format: functional, organism-based; conditions: dose 10-40 mg/kg
# [16] = Cytotoxicity against human Hep3B cells assessed as reduction in cell viability incubated for 48 hrs by sulforhodamine B assay; format: toxicity, cell-based, Hep 3B2
# [17] = test system: Mycobacterium tuberculosis; test: Bactericidal activity against Mycobacterium tuberculosis H37Rv ATCC 27294 expressing pFCA-luxAB assessed as reduction in bacterial count at 16 times MIC preincubated for 10 days under hypoxic condition followed by aerobic condition for 28 hrs by LORA; format: functional, organism-based; conditions: time 268.0 hrs
# [18] = test system: Mycobacterium tuberculosis; test: Antitubercular activity against Mycobacterium tuberculosis H37Rv ATCC 27294 infected in BALB/c mouse assessed as reduction in bacterial count at 80 mg/kg measured after 4 weeks relative to control; format: functional; design: scale not given: the % may be the effect or the level left
# Bacillus subtilis = test: Antibacterial activity against Bacillus subtilis ATCC 9372 assessed as reduction in microbial growth incubated for 20 hrs by CLSI based broth microdilution method; format: functional
# Escherichia coli = test: Antibacterial activity against Escherichia coli ATCC 25922 assessed as reduction in microbial growth incubated for 20 hrs by CLSI based broth microdilution method; format: functional
# Staphylococcus aureus [19] = test: Antibacterial activity against Staphylococcus aureus ATCC 6538P assessed as reduction in microbial growth incubated for 20 hrs by CLSI based broth microdilution method; format: functional
# Enterococcus faecalis [20] = test: Antibacterial activity against vancomycin-resistant Enterococcus faecalis ATCC 51299 assessed as reduction in microbial growth incubated for 20 hrs by CLSI based broth microdilution method; format: functional
# Staphylococcus aureus [21] = test: Antibacterial activity against methicillin-resistant Staphylococcus aureus ATCC 43300 assessed as reduction in microbial growth incubated for 20 hrs by CLSI based broth microdilution method; format: functional
# [22] = test system: Mycobacterium tuberculosis; test: Antitubercular activity against Mycobacterium tuberculosis H37Rv ATCC 27294 infected in BALB/c mouse assessed as log reduction in lung at 160 mg/kg measured after 4 weeks; format: functional
# Enterococcus faecalis [23] = test: Antibacterial activity against Enterococcus faecalis ATCC 29212 assessed as reduction in microbial growth incubated for 20 hrs by CLSI based broth microdilution method; format: functional
# [24] = test system: Mycobacterium tuberculosis; test: Antitubercular activity against Mycobacterium tuberculosis H37Rv ATCC 27294 infected in BALB/c mouse assessed as log reduction in lung at 10 mg/kg measured after 4 weeks; format: functional
smiles,measurement,setting,value
CC1=C[C@H]2C[C@@H](C)CC[C@]2(C)[C@@](C)(C(=O)C2=C(O)[C@@H](CO)NC2=O)[C@H]1/C=C/C=C/C=C/C[C@@H](C)O,MIC,[1],> 64 µg/mL
same,MIC,[2],> 64 µg/mL
same,MIC,[3],0.5 µg/mL
CC(=O)O[C@H]1C(=O)[C@@]2(C)[C@H]([C@H](OC(=O)c3ccccc3)[C@]3(O)C[C@H](OC(=O)[C@H](O)[C@@H](NC(=O)c4ccccc4)c4ccccc4)C(C)=C1C3(C)C)[C@]1(OC(C)=O)CO[C@@H]1C[C@@H]2O [PACLITAXEL],IC50 at 48 h,[4],8 ng/mL
same,IC50 at 48 h,[5],0.031 µg/mL
same,IC50 at 48 h,[6],0.016 µg/mL
CO[C@H]1/C=C/O[C@@]2(C)Oc3c(C)c(O)c4c(O)c(c(/C=N/N5CCN(C)CC5)c(O)c4c3C2=O)NC(=O)/C(C)=C\C=C\[C@H](C)[C@H](O)[C@@H](C)[C@@H](O)[C@@H](C)[C@H](OC(C)=O)[C@@H]1C [RIFAMPIN],MIC,[1],16 µg/mL
same,Activity,[7],inactive
same,MIC,[2],> 64 µg/mL
same,MIC,[8],0.25 µg/mL
same,Activity,[9],3 log10CFU
same,MIC,[3],0.25 µg/mL
C/C=C/C=C/[C@H]1C(C)=C[C@H]2C[C@@H](C)CC[C@@H]2[C@@]1(C)/C(O)=C1/C(=O)[C@@H](CO)N(C)C1=O,MIC,[8],16 µg/mL
CC1=C[C@H]2C[C@@H](C)CC[C@]2(C)[C@@](C)(C(=O)C2=C(O)[C@@H](CO)N(C)C2=O)[C@H]1/C=C/C=C/C=C/C[C@@H](C)O,IC50 at 48 h,[4],> 64000 ng/mL
same,MIC,[1],0.25 µg/mL
same,Activity,[10],Dose-Dependent Effect
same,MIC,Staphylococcus aureus [11],8 µg/mL
same,Activity,[12],2.3 log10CFU
same,MIC,Staphylococcus aureus [13],4 µg/mL
same,Activity,[14],Tde
same,Activity,[15],Dose-Dependent Effect
same,MIC,[2],> 64 µg/mL
same,IC50 at 48 h,[16],> 64 µg/mL
same,Activity,[17],inactive
same,Activity,[18],100%
same,IC50 at 48 h,[5],> 64 µg/mL
same,MIC,Bacillus subtilis,8 µg/mL
same,MIC,Escherichia coli,> 64 µg/mL
same,MIC,Staphylococcus aureus [19],8 µg/mL
same,MIC,Enterococcus faecalis [20],8 µg/mL
same,IC50 at 48 h,[6],> 64 µg/mL
same,MIC,Staphylococcus aureus [21],4 µg/mL
same,Activity,[22],2 log10CFU
same,MIC,Enterococcus faecalis [23],4 µg/mL
same,MIC,[3],0.016 µg/mL
CC1=C[C@H]2C[C@@H](C)CC[C@@H]2[C@@](C)(C(=O)C2=C(O)[C@H](CO)N(C)C2=O)[C@H]1/C=C/C=C/C=C/C[C@@H](C)O,MIC,[1],> 64 µg/mL
same,MIC,[2],> 64 µg/mL
same,MIC,[3],1 µg/mL
NNC(=O)c1ccncc1 [ISONIAZID],Activity,[24],2.5 log10CFU
same,Activity,[9],3 log10CFU
CC1=C[C@@H]2C[C@@H](C)CC[C@]2(C)[C@@](C)(C(=O)C2=C(O)[C@@H](CO)NC2=O)[C@H]1/C=C/C=C/C=C/C[C@@H](C)O,MIC,[1],> 64 µg/mL
same,MIC,[2],> 64 µg/mL
same,MIC,[3],2 µg/mL
CC1(C)S[C@@H]2[C@H](NC(=O)[C@H](N)c3ccccc3)C(=O)N2[C@H]1C(=O)O [AMPICILLIN],MIC,Staphylococcus aureus [11],4 µg/mL
same,MIC,Staphylococcus aureus [13],2 µg/mL
same,MIC,Bacillus subtilis,4 µg/mL
same,MIC,Staphylococcus aureus [19],> 64 µg/mL
same,MIC,Enterococcus faecalis [20],4 µg/mL
same,MIC,Staphylococcus aureus [21],> 64 µg/mL
same,MIC,Enterococcus faecalis [23],2 µg/mL
C/C=C/[C@@H]1C=C[C@@H]2C[C@H](C)CC[C@H]2[C@]1(C)/C(O)=C1/C(=O)[C@H](CO)N(C)C1=O,MIC,[8],> 64 µg/mL
